According to ChEMBL document CHEMBL1145591, “Synthesis of new UV-B light absorbents: (Acetylphenyl)glycosides with antioxidant activities” (Bioorg Med Chem Lett, 2008):

Assay: Antioxidant activity after 1 hr by cytochrome-c reduction assay
Type: functional
Parameters: scale not given: the % may be the effect or the level left

Structure (SMILES) | Activity
CC(=O)c1cccc(O[C@@H]2O[C@H](CO)[C@@H](O)[C@H](O)[C@@H]2O)c1 | 71.5%
CC(=O)c1cccc(O[C@@H]2O[C@H](CO)[C@@H](O)[C@H](O)[C@H]2O)c1 | 51.7%
CC(=O)c1cccc(O)c1 | 0%
CC(=O)c1cccc(O[C@H]2O[C@H](CO)[C@@H](O)[C@H](O)[C@@H]2O)c1 | 66.9%
